In article PMC9161374 (Science Translational Medicine, 2022):
Several values for one entry are separate records, joined by “and”; a condition that tells them apart may be missing. Equal entries are not always repeated. Where two headings read alike, the source gives them in different places.

Key:
[1] = system: SARS-CoV-2 replicon system (pBAC-SARS-CoV-2-Replicon-Luc); assay: microbe, parasite or virus in culture; format: cell-based; conditions: Severe acute respiratory syndrome coronavirus 2, HEK-293T, 60 h
[2] = system: SARS-CoV-2 (Beta, B.1.351); assay: microbe, parasite or virus in culture; format: cell-based; conditions: for EC50: read-out: EC50 in Vero E6 cells, SARS-CoV-2 (Beta, B.1.351); for % Inhibition: beta
[3] = CCK-8 cell viability assay; format: cell-based, African green monkey; conditions: African green monkey; Vero E6 cells, 48 h, CCK8
Protocol: To investigate the effect of drugs on cell viability, Vero E6 cells were seeded in 96-well plates at a density of 20,000 cells per well and were treated with drugs at indicated concentrations (0, 0.01, 0.1, 1, 5, 10, 50, 75, 100, 200 μM) for 48 hours. Cell viability was tested by using Cell Counting Kit-8 (CCK-8, Bimake, B34302). The figures were plotted from cell viability percentage versus the drug concentrations using GraphPad Prism 6 software.
Fig. S4. Cytotoxicity assay of compounds in Vero E6 cells.
Vero E6 cells were plated in 96-well plates and treated with increasing concentrations
of each indicated compound, ranging from 0 to 200 μM, for 48 hours. Cell viability was
tested using Cell Counting Kit-8 (CCK-8). Data are presented as mean ± SD.

[4] = system: SARS-CoV-2 (B.1) in Huh7 cells; assay: Anti-SARS-CoV-2 activity in Huh7 cells (viral yield by qRT-PCR); format: cell-based; conditions: B.1, MOI 0.05, 48 h
SARS-CoV-2 (B.1) = assay: Anti-SARS-CoV-2 activity in Vero E6 cells (viral yield by qRT-PCR); format: cell-based
[5] = system: SARS-CoV-2 (Delta, B.1.617.2); assay: microbe, parasite or virus in culture; format: cell-based; conditions: for % Inhibition: delta
SARS-CoV-2 (strain B.1) = assay: SARS-CoV-2 infection in Ad5-hACE2 mice; format: in vivo, Ad5-hACE2 BALB/c mice

Question: Which results are given for `CCCC(=O)OC[C@H]1O[C@@](C#N)(c2ccc3c(N)ncnn23)[C@H](O)[C@@H]1O` [ATV009]?
Answer: EC50 ([1]; read-out: EC50 (Confidence 95%), replicon): 0.217 µM; EC90 ([1]; read-out: EC90 (Confidence 95%), replicon): 0.313 µM; EC50 ([2]; Severe acute respiratory syndrome coronavirus 2, Vero C1008, 48 h): 1.38 µM; inhibition at 0.01 µM ([2]; Severe acute respiratory syndrome coronavirus 2, Vero C1008, beta, 0.01 uM, Vero E6, replicates): 0%; inhibition at 0.1 µM ([2]; Severe acute respiratory syndrome coronavirus 2, Vero C1008, beta, 0.1 uM, Vero E6, replicates): 0%; inhibition at 0.25 µM ([2]; Severe acute respiratory syndrome coronavirus 2, Vero C1008, beta, 0.25 uM, Vero E6, replicates): 0%; inhibition at 0.5 µM ([2]; Severe acute respiratory syndrome coronavirus 2, Vero C1008, beta, 0.5 uM, Vero E6, replicates): 0%; inhibition at 1 µM ([2]; Severe acute respiratory syndrome coronavirus 2, Vero C1008, beta, 1 uM, Vero E6, replicates): 0%; inhibition at 2 µM ([2]; Severe acute respiratory syndrome coronavirus 2, Vero C1008, beta, 2 uM, Vero E6, replicates): 97%; inhibition at 5 µM ([2]; Severe acute respiratory syndrome coronavirus 2, Vero C1008, beta, 5 uM, Vero E6, replicates): 99.7%; inhibition at 10 µM ([2]; Severe acute respiratory syndrome coronavirus 2, Vero C1008, beta, 10 uM, Vero E6, replicates): 99.9%; inhibition at 50 µM ([2]; Severe acute respiratory syndrome coronavirus 2, Vero C1008, beta, 50 uM, Vero E6, replicates): 99.9%; EC90 ([2]; Severe acute respiratory syndrome coronavirus 2, Vero C1008, read-out: EC90 (Confidence 95%), Vero-E6, Beta B.1.351): 1.78 µM; % Inhibition ([2]; 2 uM, Vero E6, replicates): 97.0202%; % Inhibition ([2]; 5 uM, Vero E6, replicates): 99.5977%; % Inhibition ([2]; 10 uM, Vero E6, replicates): 99.9341%; % Inhibition ([2]; 50 uM, Vero E6, replicates): 99.9498%; EC50 [2]: 1.48 µM; CC50 at 48 h [3]: > 50 µM; EC50 ([4]; Severe acute respiratory syndrome coronavirus 2, Huh-7, read-out: EC50 (Confidence 95%) in Huh7 cells): 1.03 µM; EC90 ([4]; Severe acute respiratory syndrome coronavirus 2, Huh-7, read-out: EC90 (Confidence 95%) in Huh7 cells): 1.31 µM; % Inhibition (SARS-CoV-2 (B.1); 1 μM, replicates, sheet Fig.S3): 55.195%; % Inhibition (SARS-CoV-2 (B.1); 2 μM, replicates, sheet Fig.S3): 75.409%; % Inhibition (SARS-CoV-2 (B.1); 5 μM, replicates, sheet Fig.S3): 88.59%; % Inhibition (SARS-CoV-2 (B.1); 10 μM, replicates, sheet Fig.S3): 90.9393%; % Inhibition (SARS-CoV-2 (B.1); B.1, 2 uM, Vero E6, replicates, 2 µM): 99.9224%; % Inhibition (SARS-CoV-2 (B.1); B.1, 5 uM, Vero E6, replicates, 5 µM): 99.9224%; % Inhibition (SARS-CoV-2 (B.1); B.1, 10 uM, Vero E6, replicates, 10 µM): 99.9809%; % Inhibition (SARS-CoV-2 (B.1); B.1, 50 uM, Vero E6, replicates, 50 µM): 99.9896%; inhibition at 0.1 µM (SARS-CoV-2 (B.1); Severe acute respiratory syndrome coronavirus 2, Vero C1008, 0.1 μM, replicates, sheet Fig.S3): 0%; inhibition at 0.5 µM (SARS-CoV-2 (B.1); Severe acute respiratory syndrome coronavirus 2, Vero C1008, 0.5 μM, replicates, sheet Fig.S3): 0%; inhibition at 1 µM (SARS-CoV-2 (B.1); Severe acute respiratory syndrome coronavirus 2, Vero C1008, 1 μM, replicates, sheet Fig.S3): 63.5%; inhibition at 2 µM (SARS-CoV-2 (B.1); Severe acute respiratory syndrome coronavirus 2, Vero C1008, 2 μM, replicates, sheet Fig.S3): 75.7%; inhibition at 5 µM (SARS-CoV-2 (B.1); Severe acute respiratory syndrome coronavirus 2, Vero C1008, 5 μM, replicates, sheet Fig.S3): 90.9%; inhibition at 10 µM (SARS-CoV-2 (B.1); Severe acute respiratory syndrome coronavirus 2, Vero C1008, 10 μM, replicates, sheet Fig.S3): 93.2%; inhibition at 0.01 µM (SARS-CoV-2 (B.1); Severe acute respiratory syndrome coronavirus 2, Vero C1008, B.1, 0.01 uM, Vero E6, replicates): 0%; inhibition at 0.1 µM (SARS-CoV-2 (B.1); Severe acute respiratory syndrome coronavirus 2, Vero C1008, B.1, 0.1 uM, Vero E6, replicates): 0%; inhibition at 0.25 µM (SARS-CoV-2 (B.1); Severe acute respiratory syndrome coronavirus 2, Vero C1008, B.1, 0.25 uM, Vero E6, replicates): 0%; inhibition at 0.5 µM (SARS-CoV-2 (B.1); Severe acute respiratory syndrome coronavirus 2, Vero C1008, B.1, 0.5 uM, Vero E6, replicates): 0%; inhibition at 1 µM (SARS-CoV-2 (B.1); Severe acute respiratory syndrome coronavirus 2, Vero C1008, B.1, 1 uM, Vero E6, replicates): 0%; inhibition at 2 µM (SARS-CoV-2 (B.1); Severe acute respiratory syndrome coronavirus 2, Vero C1008, B.1, 2 uM, Vero E6, replicates): 99.8%; inhibition at 5 µM (SARS-CoV-2 (B.1); Severe acute respiratory syndrome coronavirus 2, Vero C1008, B.1, 5 uM, Vero E6, replicates): 99.8%; inhibition at 10 µM (SARS-CoV-2 (B.1); Severe acute respiratory syndrome coronavirus 2, Vero C1008, B.1, 10 uM, Vero E6, replicates): 99.9%; inhibition at 50 µM (SARS-CoV-2 (B.1); Severe acute respiratory syndrome coronavirus 2, Vero C1008, B.1, 50 uM, Vero E6, replicates): 99.9%; EC90 (SARS-CoV-2 (B.1); Severe acute respiratory syndrome coronavirus 2, Vero C1008, read-out: EC90 (Confidence 95%)): 1.53 µM; EC50 (SARS-CoV-2 (B.1); Severe acute respiratory syndrome coronavirus 2, Vero C1008, MOI 0.05, 48 h): 1.33 µM; EC50 ([5]; Severe acute respiratory syndrome coronavirus 2, Vero C1008, 48 h, read-out: EC50 in Vero E6 cells, SARS-CoV-2 (Delta, B.1.617.2)): 0.492 µM; inhibition at 0.01 µM ([5]; Severe acute respiratory syndrome coronavirus 2, Vero C1008, delta, 0.01 uM, Vero E6, replicates): 0%; inhibition at 0.1 µM ([5]; Severe acute respiratory syndrome coronavirus 2, Vero C1008, delta, 0.1 uM, Vero E6, replicates): 0%; inhibition at 0.25 µM ([5]; Severe acute respiratory syndrome coronavirus 2, Vero C1008, delta, 0.25 uM, Vero E6, replicates): 0%; inhibition at 0.5 µM ([5]; Severe acute respiratory syndrome coronavirus 2, Vero C1008, delta, 0.5 uM, Vero E6, replicates): 57.8%; inhibition at 1 µM ([5]; Severe acute respiratory syndrome coronavirus 2, Vero C1008, delta, 1 uM, Vero E6, replicates): 94%; inhibition at 2 µM ([5]; Severe acute respiratory syndrome coronavirus 2, Vero C1008, delta, 2 uM, Vero E6, replicates): 95.8%; inhibition at 5 µM ([5]; Severe acute respiratory syndrome coronavirus 2, Vero C1008, delta, 5 uM, Vero E6, replicates): 91.8%; inhibition at 10 µM ([5]; Severe acute respiratory syndrome coronavirus 2, Vero C1008, delta, 10 uM, Vero E6, replicates): 99.7%; inhibition at 50 µM ([5]; Severe acute respiratory syndrome coronavirus 2, Vero C1008, delta, 50 uM, Vero E6, replicates): 99.9%; EC90 ([5]; Severe acute respiratory syndrome coronavirus 2, Vero C1008, read-out: EC90 (Confidence 95%), Vero-E6, Delta B.1.617.2): 0.678 µM; % Inhibition ([5]; 0.5 uM, Vero E6, replicates): 47.7229%; % Inhibition ([5]; 1 uM, Vero E6, replicates): 93.0132%; % Inhibition ([5]; 2 uM, Vero E6, replicates): 93.5943%; % Inhibition ([5]; 5 uM, Vero E6, replicates): 86.9079%; % Inhibition ([5]; 10 uM, Vero E6, replicates): 98.6486%; % Inhibition ([5]; 50 uM, Vero E6, replicates): 99.5907%

Question: For `CC(C)C(=O)OC[C@H]1O[C@@H](n2ccc(NO)nc2=O)[C@H](O)[C@@H]1O` [EIDD-2801, molnupiravir, reference compound], which “Lung viral titer, Log10 (FFU/g)” value (SARS-CoV-2 (strain B.1); 500 mg/kg orally once daily, 2 dpi, FFA, individual mice) is on record?
Answer: 3.468 Log10 (FFU/g) and 2.623 Log10 (FFU/g) and 3.1 Log10 (FFU/g)

Question: And the “viral load and pathological damage of the lung” value (SARS-CoV-2 (strain B.1); ATV006 250 mg/kg, EIDD-2801 500 mg/kg, orally once daily)?
Answer: reduce the viral load and pathological damage of the lung
